# In patent US10155038B2, “Cells prepared by transient transfection and methods of use thereof” (Yale University, priority 2007, dated 2018):
# Legend:
# EML cells = assay: GFP transfection of EML cells by nucleofection, FACS; assay type: cell-based, mouse; settings: FIG. 2B; for GFP expression when ATP in the E-PAP reaction was replaced by ATP analog: without tail extension
# Protocol: Electroporation was performed using an Amaxa NUCLEOFECTOR™-II (Amaxa Biosystems, Cologne, Germany) in accordance with manufacturer recommendations. Jurkat and B cell lines were transfected using NUCLEOFECTOR™-II solution V and the set of recommended regimes for electroporation. EML cells were transfected using solutions V, T and R and different regimes of electroporation. T lymphocytes were transfected using T cell NUCLEOFECTOR™-II solution and different regimes of electroporation. Alternative methods of nucleic acids delivery were also used: cationic liposome mediated transfection was performed using LIPOFECTIN® or LIPOFECTAMIN® (Invitrogen). Electroporation was also performed with the ECM 830 (BTX) (Harvard Instruments, Boston, Mass.) or the Gene Pulser II (BioRad, Denver, Colo.), Multiporator (Eppendorf, Hamburg Germany). All procedures were performed as directed by the manufacturers. pmaxGFP plasmid DNA (Amaxa Biosystems) was used as the DNA control. The efficiency of transfection (ET) was determined 18h after transfection by fluorescence activated cell sorting (FACS). In some experiments transfectants were further analyzed each 24h until GFP could not longer be detected. Cell viability was determined by trypan blue dye exclusion.
# Flow cytometry was performed using the fluorescent activated cell sorting (FACS®) assay. Flow cytometry was performed on cell subpopulations was performed at the Yale Cancer Center Flow Cytometry Shared Resource, using a FACS® Calibur flow cytometer (Becton-Dickinson, San Jose, Calif.) equipped with 488 nm laser and the standard filter setup. Fluorescence signals were collected on a logarithmic scale. A minimum of ten thousand cells were interrogated for each sample. Analysis of data was performed using FlowJo software (Tree Star, Inc., San Carlos, Calif.). The expression efficiency was calculated as the difference between the geometric mean of fluorescence of the transfectants and control (mock transfected) cells. […]
# GFP mRNA = assay: siRNA inhibition of GFP mRNA expression in Jurkat cells; assay type: cell-based; settings: Jurkat cells with EGFP mRNA; the day after transfection
# Description: Jurkat T cells were electroporated with different amount of FITC labeled siRNA. The condition and the kinetics of siRNA transfection were identical to mRNA transfection.
# metastatic melanoma = settings: cited from earlier work
# [1] = tested on: mantle cell lymphoma (MCL) cell lines; assay: Viability of MCL cell lines, CELLTITER-GLO assay; assay type: cell-based
# Description: FIG. 13 is a line graph showing viability (percent) of various mantle cell lymphoma (MCL) cancer cell lines (SP-53, SP-49, Granta, JEKO, and TVM) following treatment with various concentrations (M) of the BH3 mimetic ABT-737.
# FIGS. 14A-14D are plots showing viability (Relative Light Units) following a CELLTITER-GLO® assay of various mantle cell lymphoma (MCL) cancer cell lines: JVM-2 (FIG. 14A), Granta-519 (FIG. 14B), JEKO-1 (FIG. 14C), and SP-53 (FIG. 14D) following treatment with various concentrations (M) of the BH3 mimetic BIM SAHB (-▪-), or a BIM SAHB R153D variant control (-●-).
# A panel of mantle cell lymphoma (MCL) cell lines were exposed to BIM SAHBA, BIM SAHBA(R153D), or vehicle alone for 24 hours in OptiMEM medium followed by viability testing using the CELLTITER-GLO® (Promega) assay.
# caspase 3/7 = assay: Caspase 3/7 activation in MCL cell lines; assay type: cell-based; settings: JVM-2, Granta-519, JEKO-1, SP-53
# Description: FIGS. 15A-15D are plots showing caspase 3/7 activation (Relative Light Units) in various mantle cell lymphoma (MCL) cancer cell lines: JVM-2 (FIG. 15A), Granta-519 (FIG. 15B), JEKO-1 (FIG. 15C), and SP-53 (FIG. 15D) following treatment with various concentrations (μM) of the BH3 mimetic SAHB (right hand bar in each pair), or a SAHB R153D variant control (left hand bar in each pair).
compound,measurement,setting,value
"CO[C@H]1[C@@H](O)[C@H](n2c[n+](C)c3c(=O)[nH]c(N)nc32)O[C@@H]1COP(=O)(O)OP(=O)(O)OP(=O)(O)OC[C@H]1O[C@@H](n2cnc3c(=O)[nH]c(N)nc32)[C@H](O)[C@@H]1O [ARCA, 3′-O-Methyl-m7G[5′]ppp[5′]G]",increase of GFP expression compared to the standard capping procedure,EML cells; GFP mRNA capped with ARCA,two-fold increase
anti-GFP siRNA: anti-GFP siRNA (GCAAGCUGACCCUGAAGUUCAU) (chemistry not given here),inhibition of GFP mRNA expression,GFP mRNA,80%
Nc1ncnc2c1nnn2[C@@H]1O[C@H](CO)[C@@H](O)[C@H]1O [8-azaadenosine],GFP expression when ATP in the E-PAP reaction was replaced by ATP analog,EML cells,increased
Nc1ncnc2c1ncn2[C@@H]1O[C@H](CO)C[C@H]1O [cordycepin],GFP expression when ATP in the E-PAP reaction was replaced by ATP analog,EML cells,increased
nivolumab: anti-PD-1 antibody,overall response rate,metastatic melanoma,30-40%
CN(C)CC[C@H](CSc1ccccc1)Nc1ccc(S(=O)(=O)NC(=O)c2ccc(N3CCN(Cc4ccccc4-c4ccc(Cl)cc4)CC3)cc2)cc1[N+](=O)[O-] [ABT-737],effect on viability,"[1]; FIG. 13, SP-53, SP-49, Granta, JEKO, JVM",reduced viability in a subset of the MCL cell lines
synthetic peptide modeled on the BIM BH3 death domain with all-hydrocarbon crosslink; IWIAQELRXIGDXFNAYYARR (SEQ ID NO:1) [BIM SAHBA],caspase 3/7 activation,caspase 3/7,correlated with caspase 3/7 activation
same,"EC50s, impaired viability","[1]; 24 hours, OptiMEM medium, panel of MCL cell lines",low micromolar range
